Data as given in patent publication US11613552B2, “Pharmaceutical agents, compositions, and methods relating thereto” (Alltech, Inc., priority 2017, dated 2023).

Experiments:
[1] = tested on: Lepr^db/db mice; experiment: Glucose tolerance test in Lepr^db/db mice; type: in vivo, mouse
Procedure: Male Lepr^db/db mice at 38 days of age were intraperitoneally (ip) injected daily with physiological saline ([…]) containing 0.2% DMSO, Compound #C, Compound #50, Compound #68, and/or Compound #43 (25 μg selenium or sulfur equivalents of each compound per kilogram body weight, diluted in sterile physiological saline) for periods ranging from 43-90 days. Body weights of the above treated mice were recorded daily using a balance and any visible abnormal animal gross morphology and walking behavior were monitored daily. After the treatments, animals were fasted overnight and then subjected to blood glucose or HbA1c assays, glucose tolerance tests or tissue collections.
For comparative studies of any potential anti-diabetic effects of Compounds #43, #69 and #70, male Lepr^db/db mice at 41 days of age were intraperitoneally (ip) injected daily with physiological saline ([…]) containing 0.2% DMSO, Compound #43, Compound #69, or Compound #70 (25 μg selenium of each compound per kilogram body weight, diluted in sterile physiological saline). After the treatments for 43 days, animals were fasted overnight and then subjected to blood glucose and glucose tolerance tests. After daily treatments of these compounds for 90 days, sera from these animals were collected and then subjected to blood HbA1c assays.
Glucose tolerance tests were performed as described previously (Li et al, Int J Biol Sci 2008; 4:29-36). Briefly, overnight-fasted Lepr^db/db mice after saline or compound treatments were injected intraperitoneally with 2 grams/kg body weight of 20% D-glucose. Blood glucose levels at time 0 (immediately before the injection of glucose), 0.25, 0.5, 1 and 2 hours after injection of glucose were determined using a glucometer with a maximum glucose measurement capacity of 600 mg/dL. Because of this, blood glucose levels over 600 mg/dL were counted as 600 mg/dL in the data analysis.

[2] = tested on: Tau; settings: AD brains; cited from earlier work
[3] = tested on: C2C12 cells; settings: each individually, mouse skeletal muscle myoblast C2C12 cells; cited from earlier work
[4] = tested on: G6pc; experiment: QRT-PCR of basal G6pc expression in AML-12 cells; type: cell-based, mouse; settings: 300 ppb selenium (3.8 μM), serum-free, 24 hr (FIG. 10A)
Procedure: For RNA analysis of basal G6pc expression (without the presence of diabetic stimuli: 8-CPT/Dex), amplified AML-12 and HepG2 cells were cultured on 24-well plates (0.5-2×10^5 cells/well) overnight in 10% FBS ITS- and Dex-free DMEM/F12 media and 10% FBS EMEM media, respectively. These cells were rinsed twice with PBS to remove residual sera. Then, the PBS-washed HepG2 cells were treated without or with insulin or Compound #43 in serum-free EMEM media for 40 hr. In some experiments, the PBS-washed AML-12 cells were incubated without or with Compound #43 or other selenium compounds in serum-free DMEM/F12 media for 24 hours. In other experiments, amplified AML-12 cells were pretreated without or with Compound #43 (150 or 300 ppb) in 10% FBS but ITS/Dex-free DMEM/F12 media for 24 hr. After 24 hr treatment, AML-12 cells were washed twice with PBS (to remove any residual serum in the culture) and then treated with insulin, Compound #43 or both, in the serum-free DMEM/Dex media for 6 hr.
(§1) Total RNA from saline- or selenium compound-treated Lepr^db/db mice was isolated using a Qiagen RNAeasy RNA isolation kit according to the Manufacturer's protocol. Total RNA from cultured cells was isolated using Trizol (Invitrogen) according to the manufacturer's protocol, and then incubated with DNase I to remove any potential contaminating genomic DNA. RNA samples were subjected to real-time PCR (QRT-PCR) analysis using Applied-Bioscience's RT kit and predesigned Taqman probes (Invitrogen), as described previously (Lan et al EMBO J 2003). Data were normalized by Actin B (Actb) mRNA levels in each sample, and are presented as mean±SEM of 3-5 samples.

[5] = tested on: brain cells; settings: cited from earlier work
[6] = tested on: HepG2 cells; experiment: Glucose production assay in HepG2 cells; type: cell-based, human; settings: tested doses, serum-free glucose production media, 48 hr (FIG. 1)
Procedure: Equal numbers of Human HepG2 or rat H4IIE cells (1-1.5×10^5 cells/well) were seeded on 96 well plates in 10% FBS-containing media for 24 hr. Cells were then washed twice with PBS, and treated with various concentrations of compounds, metformin or insulin in 100 μl of glucose production media (glucose-free, phenol red-free DMEM media supplemented with 20 mM sodium lactate, 2 mM sodium pyruvate and 5 mM HEPES) at 37° C. for 24 hr (H4IIE cells only) or 48 hr (HepG2 cell only). Cells were also incubated with 0.24% DMSO (the maximal volume of DMSO solvent used in the experiments).
After the above treatments, 50 μl of culture media were collected, and subjected to glucose analysis using Molecular Probes Amplex Red glucose assay kit (Cat #A22189) according to the manufacturer's protocol. Cell numbers or viability in the culture plate after the above compound treatments were determined using Promega's CellTiter96® AQueous One Solution Cell Proliferation Assay kits, according to the manufacturer's protocol and instructions. In brief, after removing 50 μl of culture media for glucose assay, cells were incubated with AQueous One solution (25 μl stock solution and 50 μl prewarmed PBS/per well) at 37° C. for 1 hour, and the absorbance of OD490 nm in each sample was determined by the Bio-Tek microplate reader. Cell viability in culture wells were determined by the subtraction of OD490 nm in cultured cells with the OD490 nm in plain culture media (without seeding of cells). Glucose production in the culture cells were obtained by normalizing the glucose concentration in culture media by cell viability in each well. At least 3 samples per each treatment were examined for the above analysis. Data are presented as Mean±SEM of those samples. Experiments were repeated at least twice.
The half maximal inhibitory concentration (IC50 values) of Compound #43 or metformin for the inhibition of glucose production were determined using the ED50 Plus v1.0 online software.

[7] = tested on: G6pc; experiment: QRT-PCR of G6pc mRNA in livers of Lepr^db/db mice; type: in vivo, mouse; settings: 25 μg selenium/kg ip daily, 52 days (FIG. 9)
Procedure: Male Lepr^db/db mice (C57BL/6J strain, purchased from The Jackson Laboratory) at 38-days of age were intraperitoneally injected daily with physiological saline ([…]) containing 0.2% DMSO, Compound #50, or Compound #43 (25 μg selenium equivalent of each compound per kilogram body weight, diluted in the sterile physiological saline) for 52 days. After the treatment, livers were collected and subjected RNA analysis.
as §1

[8] = tested on: Glut4; experiment: QRT-PCR of Glut4 mRNA in livers of Lepr^db/db mice; type: in vivo, mouse; settings: 25 μg selenium/kg ip daily, 52 days (FIG. 15)
Procedure: Male Lepr^db/db mice (C57BL/6J strain, purchased from The Jackson Laboratory) at postnatal day 38 were intraperitoneally injected daily with physiological saline ([…]) containing 0.2% DMSO, Compound #43, or Compound #50 (25 μg selenium of each compound per kilogram body weight, diluted in sterile physiological saline) for 52 days. After treatment, livers were collected and subjected to RNA analysis.
Total liver RNA from saline- or Compound #43-treated Lepr^db/db mice was isolated using a Qiagen RNAeasy RNA isolation kit according to the Manufacturer's protocol. Total RNA from cultured cells was isolated using Trizol (Invitrogen) according to the manufacturer's protocol, and then incubated with DNase I to remove any potential contaminating genomic DNA. RNA samples were subjected to real-time PCR analysis using Applied-Bioscience's RT kit and predesigned Taqman probes (Invitrogen), as described previously (Lan et al EMBO J 2003). Data were normalized by Actin B (Actb) mRNA levels in each sample and are presented as mean±SEM of 3-5 samples.

Structure (SMILES)	glucose tolerance (overall) ([1]; 25 μg selenium/kg ip daily 43 days from day 38, glucose 2 g/kg (FIG. 8A))	Tau hyperphosphorylation [2]	mitochondrial (MT) potential [3]	effect on G6pc expression [4]	gluconeogenesis in brain cells [5]	effect on glucose production in HepG2 cells [6]	blood glucose level at 2 hr after glucose injection ([1]; FIG. 8A, 43 days treatment)	blood glucose levels at 0.25, 0.5 and 1 hr after glucose injection ([1]; FIG. 8A, 43 days treatment)	effect on G6pc mRNA levels in the liver [7]	effect on Glut4 mRNA levels in the liver [8]
C[Se]C[C@H]1O[C@@H](n2cnc3c(N)ncnc32)[C@@H](O)C1O (stereo partly shown) [Compound C, 5′-Methylselenoadenosine, reference compound]	did not improve glucose tolerance	can inhibit Tau hyperphosphorylation in AD brains	can enhance mitochondrial (MT) potential	did not significantly inhibit G6pc expression	can enhance gluconeogenesis in brain cells	inhibited glucose production	–	–	–	–
C[Se]C[C@H]1O[C@@H](n2cnc3c(N)ncnc32)C2OC(=O)OC21 (stereo partly shown) [Compound #50, Adenosine, 5′-Se-methyl-5′-seleno-, cyclic 2′,3′-carbonate]	–	–	–	did not significantly inhibit G6pc expression	–	inhibited glucose production	significant decrease of glucose level	no obvious decrease	slightly, but not significantly, decreased	numerically increased Glut4 mRNA levels
Nc1ncnc2c1ncn2[C@@H]1O[C@H](C[Se]CC[C@H](N)C(=O)O)C(O)C1O (stereo partly shown) [Compound D, 5′-Selenoadenosyl homocysteine, reference compound]	–	can inhibit Tau hyperphosphorylation in AD brains	can enhance mitochondrial (MT) potential	did not significantly inhibit G6pc expression	–	inhibited glucose production	–	–	–	–
